Tests used:
AMPK = experiment: Phosphorylation of AMPK in L6 myotubes (western blot); format: cell-based, rat
Experimental: In vitro cultured cell experiments were conducted according to a previously described protocol[6],[14]. Briefly, L6 myoblasts derived from rat skeletal muscle and of less than 40 passages were maintained in MEM supplemented with 10% foetal bovine serum (FBS) and antibiotics (100 U/ml penicillin and 100 μg/ml streptomycin) at 37 °C under a humidified atmosphere condition of 5% CO2 and 95% air. In each experiment, cells (2.2 × 10^4 cells/ml) were seeded into 96-well plates or 60-mm dishes for induction of differentiation into mature myotubes. After reaching confluence, cells were supplemented with differentiation medium containing 2% FBS and the same antibiotics for 7 days. Cells were used for each experiment after morphological analysis of differentiation status using phase-contrast microscopy. To explore the contribution of CaMKKβ or intracellular-free calcium ions in quercetin- and isorhamnetin-stimulated GLUT4 translocation, L6 cells were incubated in the presence or absence of 10 μM STO-609 and 25 μM […], respectively, for 30 min prior to treatment with either quercetin or isorhamnetin.
(§1) For in vitro cell culture experiments, after serum starvation for 18 h, myotubes were treated with various concentrations of quercetin or isorhamnetin (0.1–10 nM) for 15 min; DMSO (final 0.1%) was used as a vehicle control. As positive controls, 100 nM insulin, 1 mM AICAR, 10 nM leptin, or 100 ng/mL IL-15 were used for insulin, AMPK, JAK2/STAT, or JAK3/STAT signalling pathways, respectively. Cells were treated with insulin or AICAR for 15 min, leptin for 60 min, or IL-15 for 24 h. Whole protein and plasma membrane fractions were prepared from myotubes, as previously described. For in vivo experiment, plasma membrane fraction and tissue lysate of soleus muscle were prepared.
(§2) Translocation of GLUT4 to the plasma membrane, as well as expression and phosphorylation levels of GLUT4-related regulators were estimated by western blot analysis. Briefly, equal amounts of proteins were separated by sodium dodecyl sulfate-polyacrylamide gel electrophoresis (SDS-PAGE). Separated proteins were transferred onto a polyvinylidene fluoride membrane and nonspecific binding sites were blocked using either Blocking One (to detect unphosphorylated proteins) or Blocking One-P (to detect phosphoproteins). The membrane was incubated overnight with an appropriate primary antibody for GLUT4 (1:5000), IR (1:10000), p-IRS1 (1:5000), IRS1 (1:5000), p-PI3K (1:5000), PI3K (1:10000), p-Akt (1:5000), Akt (1:10000), p-AMPKα (1:5000), AMPKα (1:10000), p-ACC (1:5000), ACC (1:10000), p-LKB1 (1:5000), LKB1 (1:10000), p-JAK2 (1:5000), JAK2 (1:5000), p-JAK3 (1:5000), JAK3 (1:10000), p-STAT1 (1:5000), STAT1 (1:10000), p-STAT3 (1:5000), STAT3 (1:10000), p-STAT5 (1:5000), STAT5 (1:10000), or β-actin (1:20000), and subsequently treated with the corresponding horseradish peroxidase-conjugated secondary antibody (1:50000) for 1 h. Specific immune complexes were developed using ImmunoStar® LD and detected with an ATTO Light-Capture II Western Blotting Detection System. Individual band density was calculated by ImageJ and normalized to the control.
42 after morphological analysis of differentiation status using phase-contrast microscopy.
43 Preparation of whole protein and plasma membrane fractions After serum starvation
44 for 18 h, myotubes were treated with various concentrations of quercetin or isorhamnetin (1–
45 10 μM) for 15 min; DMSO (final 0.1%) was used as a vehicle control. As positive controls, […]

GLUT4 = GLUT4 translocation in L6 myotubes after siRNA knockdown of AMPKα, JAK2 or JAK3; format: cell-based, rat; details: 1 nM quercetin or isorhamnetin
Experimental: as §1, §2
Mature myotubes were cultured in antibiotic-free medium and transfected with siRNA at a final concentration of 50 nM using Lipofectamine RNAiMAX transfection reagent according to the manufacturer’s instructions. In brief, mature myotubes were transfected with siRNA in Opti-MEM for 48 h. Subsequently, the medium was changed to fresh Opti-MEM and cells were treated with the indicated concentrations of quercetin or isorhamnetin.

CC(=O)OCOC(=O)CN(CC(=O)OCOC(C)=O)c1ccccc1OCCOc1ccccc1N(CC(=O)OCOC(C)=O)CC(=O)OCOC(C)=O [BAPTA-AM, 1,2-Bis (2-aminophenoxy) ethane-N,N,N′,N′-tetraacetic acid tetrakis (acetoxymethyl ester), reference compound]
effect on quercetin-induced AMPK phosphorylation (AMPK; 25 μM BAPTA-AM for 30 min prior to 1 nM quercetin): did not affect

O=C(O)c1ccc2c3c1cccc3c(=O)n1c3ccccc3nc21 [STO-609, reference compound]
effect on quercetin-induced AMPK phosphorylation (AMPK; 10 μM STO-609 for 30 min prior to 1 nM quercetin): abolished

NC(=O)c1ncn([C@@H]2O[C@H](CO)[C@@H](O)[C@H]2O)c1N [AICAR, 5-aminoimidazole-4-carboxyamide ribonucleoside, reference compound]
compound-induced GLUT4 translocation after siRNA for AMPK (GLUT4; siAMPKα 50 nM 48 h, 1 mM AICAR): almost completely abolished

leptin: positive control for JAK2/STAT signalling pathway
compound-induced GLUT4 translocation after siRNA for JAK2 (GLUT4; siJAK2 50 nM 48 h, 10 nM leptin): abolished
